Measurements as given in patent US5866511A, “Stabilized solutions of bromonitromethane and their use as biocides” (Great Lakes Chemical Corporation, priority 1997, dated 1999).
Values after ≈ are worked out from the molar mass of the structure shown. Like-named read-outs stand apart in the source and are kept apart here.

Key:
[1] = CO2 off-gassing during storage of solutions; assay type: physicochemical; conditions: stabilized (acidified) solutions, storage under standard conditions
Procedure: (§1) BNM (4.58 g, 91.4% assay) was dissolved in 100 mL of deionized water sample 1. A pH 2.37 solution was prepared by adding one drop of sulfuric acid to 100 mL DI water and then adding 4.60 g of the BNM sample 2. A pH 3.76 solution was prepared by adding one drop of 10% aq sodium hydrogen sulfate to 100 mL DI water and then adding 4.60 g of the BNM sample 3. A pH 7.91 solution was prepared by dissolving 4.60 g of the BNM in 100 mL of DI water. A total of 7.2 g of 16.4% NaOH was then added over six minutes to maintain the pH. That solution turned red, indicating the presence of the bromonitromethylate anion and was slowly becoming acidic before the initial bromide value was determined.
The solutions of the present invention provide the additional benefit of minimizing off-gassing of CO2 during storage of the solution.

[2] = test system: Pseudomonas aeruginosa; assay: Inhibition of bacterial growth in contaminated paint (MIC); assay type: cell-based; conditions: for MIC: paint, 25° C., read-out: Minimum Inhibitory Concentration
Procedure: Water based paints are subject to microbial attack which could produce viscosity loss or offensive odors. Biocides are added to protect the paint from such degradation in the can. A paint sample was artificially contaminated with Pseudomonas aeruginosa, a bacterium which is frequently found in spoiled paint. […] The thermal treatment inactivates residual biocide present in the paint.
Acidified solutions of BNM (pH ranging from 1.5 to 3.5) are diluted with sterile water and added at various concentrations to the paint. Positive controls are established by the omission of BNM addition.
A sterile swab was dipped into the paint and samples are plated onto tryptone glucose extract agar (TGEA; Difco, Detroit, Mich.). Samples of contaminated paint are subsequently swabbed onto sterile TGEA after 1,2,3,7, and 14 days of incubation of 25° C. The plates are incubated for one week at 25° C. Any growth observed on the agar surface during the incubation period is noted. […] The minimum inhibitory concentration (MIC), defined as the lowest concentration of BNM which prevented bacterial growth in the paint, is determined for the inventive solutions.

[3] = Storage stability of aqueous BNM concentrates (bromide ion concentration by ion selective electrodes over 57 days; gas chromatography); assay type: physicochemical
Procedure: Determination of enhanced formulation stability for solutions of bromonitromethane.
A study was performed to determine if aqueous concentrates of BNM could be prepared with adequate storage stability to make the material useful as a biocide. […] Less acidified solutions had faster degradation rates.
as §1
Each solution was measured for bromide ion concentration using ion selective electrodes over the course of 57 days to determine the degree of hydrolysis.
An acidified solution of bromonitromethane (BNM) is prepared by adding one drop of sulfuric acid to 100 ml distilled water and then adding 4.60 g of BNM (91.4% assay). The solution is sampled for gas chromatography assay at the beginning and end of these studies to confirm the BNM concentration. Aqueous solutions of BNM were stable when acidified with mineral acids to acidic pHs. The material hydrolyzed at a very slow rate giving a half-life of over ten years.
In a similar manner, acidified bromonitromethane solutions having pHs of about 1.0, 1.5, 2.0, 2.5, 3.0, 3.5 and 4.0 are prepared.

[4] = test system: Chlamydomonas; assay: Inhibition of algal growth in Allens medium (MIC), Chlamydomonas; assay type: cell-based
Procedure: (§2) Pure cultures of the algal genera Anabeana, Chlamydomonas, and Chlorella are used to inoculate Allens medium at pH 7.5 achieving a final concentration of 10^4 cells/ml. All tests are performed on pure cultures. Various concentrations of acidified BNM solution (for each pH across the pH range of 1.5 to 3.5) are added to the culture tubes. Positive controls are established by the omission of BNM.
(§3) The algal cultures are housed in a light box (400 ft. candles; light source--cool white fluorescent tubes; 16 h on/8 h off cycles; 22°-26° C.) for three weeks. The cultures are read weekly noting any turbidity and green coloration of the medium which would indicate a positive result. […] The minimum inhibitory concentration was determined, with representative results being shown below.

[5] = test system: Anabeana; assay: Inhibition of algal growth in Allens medium (MIC), Anabeana; assay type: cell-based
Procedure: as §2, §3

[6] = test system: Aspergillus niger; assay: Inhibition of fungal growth in synthetic cooling water (MIC); assay type: cell-based, Aspergillus niger (ATCC 9642); conditions: for MIC: 168 h, read-out: Minimum Inhibitory Concentration
Procedure: Industrial water presents a favorable environment for fungal growth. Fungi can cause many problems in industrial systems including damage to cooling tower wood fill and decks by delignification. Synthetic water is prepared according to the following formula: 0.2 mM MgSO4, 1.2 mM CaCl2 and 1.0 mM NaHCO3. Cooling water presents a favorable environment for microbiological growth. Fungi can damage the cooling tower wood fill and decks by delignification. Synthetic cooling water (CW) is prepared according to the following formula: 0.2 mM MgSO4, 1.2 mM CaCl2, and 1.0 mM NaHCO. The pH is adjusted to either 6 or 8 with either H2 SO4 or NaOH. The resulting solution is then sterilized by passing through a 0.2 μm filter. Various concentrations of acidified BNM solution (pH ranging from 1.5 to 4.0) are added to aliquots of sterile synthetic water. A positive control is prepared by omitting the BNM.
Three day old cultures of Aspergillus niger (ATCC 9642) are harvested from the surface of potato dextrose agar (Difco, Detroit, Mich.) supplemented with tartaric acid. The samples are dosed with A. niger to achieve a concentration of 10^3 CFU/ml. These samples are incubated for one week at ambient temperature. The cultures are plated onto PDA in order to recover any surviving mold. These plates are incubated for three days at ambient temperature. […] The minimum inhibitory concentration (MIC), defined as the lowest concentration of BNM which prevented fungal growth on the PDA plates, is determined.

[7] = test system: Pseudomonas aeruginosa; assay: Inhibition of microbial growth in alkaline paper pulp (MIC, at least 90% decrease); assay type: cell-based, Pseudomonas aeruginosa (ATCC 27853); conditions: read-out: Minimum Inhibitory Concentration
Procedure: Microbial growth at various points in a paper making system could produce a slime layer which could drop onto the paper sheet causing product damage and machine downtime due to breaks. Biocides are added to keep the microbial growth in check throughout the system. A pulp slurry (1.25% dry basis) was prepared in sodium phosphate buffer (200 mM, pH 8). The slurry is sterilized by autoclaving at 121° C. for 20 min. Pseudomonas aeruginosa (ATCC 27853) is added to the sterile pulp slurries to achieve a final concentration of 10^6 cells/ml. This population is confirmed by serially diluting a sample in sterile phosphate buffer (0.3 mM) and plating onto tryptone glucose extract agar (TGEA; Difco, Detroit, Mich.). Bromonitromethane is added at various concentrations to the test cultures. Controls are established by omitting BNM from the test samples. Following a 3 and 24 hr. exposure period at ambient temperature, the resulting test suspensions are diluted and plated as previously described. All plates are enumerated following an incubation period of 24 hr. at 37° C. The minimum inhibitory concentration is defined as the lowest concentration which decreased the microbial population by at least 90% over the period tested.

[8] = test system: all the organisms; conditions: quoted from Clark et al.; attributed to volatility; cited from earlier work
[9] = test system: Chlorella; assay: Inhibition of algal growth in Allens medium (MIC), Chlorella; assay type: cell-based
Procedure: as §2, §3

[10] = test system: Pseudomonas aeruginosa; assay: Inhibition of aerobic bacteria in borate buffer (MIC, at least 90% decrease); assay type: cell-based, Pseudomonas aeruginosa (ATCC 278853)
Procedure: Borate buffer (25 mM) is adjusted to either pH 7 or 8. The buffer was sterilized by passing through a 0.2 μm filter. Pseudomonas aeruginosa (ATCC 278853) is added to aliquots of the sterile buffer to achieve a final concentration of 10^6 cells/ml. This population is confirmed by serially diluting a sample in sterile phosphate buffer (0.3 mM) and plating onto tryptone glucose extract agar (TGEA; Difco, Detroit, Mich.). Acidified solutions of bromonitromethane are added at various concentrations to the test cultures. Solutions acidified with acids to pHs of between 1.5 and 3.5 are prepared and tested. Positive controls are established by omitting BNM from the test samples.
Following 3 and 24 hour exposure periods at ambient temperature, the resulting test suspensions are diluted and plated as previously described. All plates are enumerated following an incubation period of 24 hr. at 37° C. The minimum inhibitory concentration is defined as the lowest concentration which decreased the microbial population by at least 90% over the period tested.

[11] = test system: Desulfovibrio desulfuricans; assay: Inhibition of sulfate reducing bacterium in API broth (MIC); assay type: cell-based; conditions: for MIC: read-out: Minimum Inhibitory Concentration
Procedure: API broth (Difco, Detroit, Mich.) is inoculated with the sulfate reducing bacterium (SRB) Desulfovibrio desulfuricans (10^4 cells/ml). Stable, acidified solutions of bromonitromethane (pH ranging from 1.5 to 3.6) are added to provide bromonitromethane at various concentrations to the SRB cultures. A positive control is constructed in the same fashion […] BNM addition.
The cultures are housed in a GasPak® jar (Becton Dickinson Microbiology Systems, Cockeysville, Md.) under anaerobic conditions (4-10% CO2, <1% O2) at ambient temperature. Cultures are checked weekly for a period of three weeks for visible […] growth indicative of SRB's. […] The minimum inhibitory concentration (MIC), defined as the lowest concentration of BNM which prevented bacterial growth in the API broth tubes, is determined.

[12] = 504 h, Allens medium pH 7.5, three weeks, read-out: Minimum Inhibitory Concentration

For `O=[N+]([O-])CBr` [Bromonitromethane, bromonitromethane], the “CO2 off-gassing vs non-stabilized solutions” value [1] was “substantially reduce off-gassing (CO2)”, the MIC ([2]; 24 h, 1 day incubation) was 2 to 5 µg/mL (≈ 14.3 to 35.7 µM) and the MIC ([2]; 48 h, 2 days incubation) was 2 to 5 µg/mL (≈ 14.3 to 35.7 µM). It also gave an MIC ([2]; 72 h, 3 days incubation) of 2 to 5 µg/mL (≈ 14.3 to 35.7 µM), an MIC ([2]; 168 h, 7 days incubation) of 2 to 5 µg/mL (≈ 14.3 to 35.7 µM) and an MIC ([2]; 336 h, 14 days incubation) of 2 to 5 µg/mL (≈ 14.3 to 35.7 µM). The “growth inhibition (in words)” value ([2]; acidified BNM solutions) was “effective for inhibiting the growth”, the “optimum pH for stability” value ([3]; acidified with strong acids) was “about 2.3” and the degradation rate ([3]; most stable solution, acidified with H2SO4 to pH 2.3, 72000 min) was 0.4 % BNM per 50 days. For the same molecule, the “hydrolysis (in words)” value ([3]; non-acidified solutions) was “hydrolyze rapidly”, the MIC [4, 12] was 0.1 to 0.5 µg/mL (≈ 0.715 to 3.57 µM) and the “growth inhibition (in words)” value ([4]; acidified BNM solutions) was “effective for inhibiting the growth”. For the same molecule, the MIC [5, 12] was 0.5 to 1 µg/mL (≈ 3.57 to 7.15 µM), the “growth inhibition (in words)” value ([5]; acidified BNM solutions, Anabeana) was “effective for inhibiting the growth” and the MIC ([6]; synthetic cooling water pH 6, one week) was < 1 µg/mL. The MIC ([6]; synthetic cooling water pH 8, one week) was 1 to 5 µg/mL (≈ 7.15 to 35.7 µM), the “growth inhibition (in words)” value ([6]; acidified BNM solutions) was “effective for inhibiting the growth” and the MIC ([7]; pulp slurry pH 8, 3 hr exposure) was 1 to 5 µg/mL (≈ 7.15 to 35.7 µM). For the same molecule, the MIC ([7]; pulp slurry pH 8, 24 hr exposure) was < 1 µg/mL, the “inhibition of organisms (in words)” value [8] was “inhibited all the organisms . . . but gave inconsistent results” and the MIC [9, 12] was 0.5 to 1 µg/mL (≈ 3.57 to 7.15 µM). The “growth inhibition (in words)” value ([9]; acidified BNM solutions) was “effective for inhibiting the growth”, the MIC ([10]; 3 h, pH 7, read-out: Minimum Inhibitory Concentration) was 0.6 to 3.2 µg/mL (≈ 4.29 to 22.9 µM) and the MIC ([10]; borate buffer pH 7, 24 hour exposure, ≥90% decrease, read-out: Minimum Inhibitory Concentration) was 0.3 to 0.6 µg/mL (≈ 2.14 to 4.29 µM). For the same molecule, the MIC ([10]; borate buffer pH 8, 3 hour exposure, ≥90% decrease, read-out: Minimum Inhibitory Concentration) was 0.6 to 3.2 µg/mL (≈ 4.29 to 22.9 µM), the MIC ([10]; borate buffer pH 8, 24 hour exposure, ≥90% decrease, read-out: Minimum Inhibitory Concentration) was 0.3 to 0.6 µg/mL (≈ 2.14 to 4.29 µM) and the MIC ([11]; 168 h) was < 0.1 µg/mL. The MIC ([11]; 336 h, API broth, anaerobic, pH = 2.37, 2 weeks) was 0.1 to 0.5 µg/mL (≈ 0.715 to 3.57 µM), the MIC ([11]; 504 h, API broth, anaerobic, pH = 2.37, 3 weeks) was 0.1 to 0.5 µg/mL (≈ 0.715 to 3.57 µM) and the “growth inhibition (in words)” value ([11]; acidified BNM solutions) was “effective for inhibiting the growth”.
